Active and inactive are the calls of the source.
How the values were obtained:
Beta-lactamase [1] = biological target: Beta-lactamase (Salmonella choleraesuis (strain SC-B67), UniProt Q5J463)
Troponin, cardiac muscle = Troponin, cardiac muscle (Homo sapiens, UniProt P19429+P45379+P63316); test: Fluorescence-based biochemical high throughput dose response assay for activators of the calcium sensitivity of cardiac Regulated Thin Filaments (RTF). [Related pubchem assays (depositor defined):AID493008, AID493018, AID504382, AID504383]; type: protein-complex assay
Beta-lactamase [2] = biological target: Beta-lactamase (Pseudomonas aeruginosa, UniProt Q79MP6);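 note: biochemical dose-response test of metallo-beta-lactamase enzyme inhibition, read out by epi-absorbance; purified recombinant IMP-1 metallo-beta-lactamase with nitrocefin as substrate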
Chain of Beta-lactamase (Pseudomonas aeruginosa, UniProt Q79MP6) (Q79MP6 whole entry): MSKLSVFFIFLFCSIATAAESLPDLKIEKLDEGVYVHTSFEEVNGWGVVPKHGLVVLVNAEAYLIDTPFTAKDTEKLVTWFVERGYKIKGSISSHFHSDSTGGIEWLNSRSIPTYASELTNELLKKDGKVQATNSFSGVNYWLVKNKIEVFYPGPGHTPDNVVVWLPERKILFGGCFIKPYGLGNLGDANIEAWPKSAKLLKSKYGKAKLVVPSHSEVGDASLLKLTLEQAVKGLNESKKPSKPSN

SUMO E1/E2 = SUMO E1/E2 (Homo sapiens, UniProt P63279+Q9UBE0+Q9UBT2); test: SAR analysis of SUMOylation using HTRF in an in-Vitro dose response assay. [Related pubchem assays (depositor defined):AID2006, AID2011, AID2018, AID2069, AID2658]; type: functional
Chain of SUMO E1/E2 (Q9UBE0 whole entry): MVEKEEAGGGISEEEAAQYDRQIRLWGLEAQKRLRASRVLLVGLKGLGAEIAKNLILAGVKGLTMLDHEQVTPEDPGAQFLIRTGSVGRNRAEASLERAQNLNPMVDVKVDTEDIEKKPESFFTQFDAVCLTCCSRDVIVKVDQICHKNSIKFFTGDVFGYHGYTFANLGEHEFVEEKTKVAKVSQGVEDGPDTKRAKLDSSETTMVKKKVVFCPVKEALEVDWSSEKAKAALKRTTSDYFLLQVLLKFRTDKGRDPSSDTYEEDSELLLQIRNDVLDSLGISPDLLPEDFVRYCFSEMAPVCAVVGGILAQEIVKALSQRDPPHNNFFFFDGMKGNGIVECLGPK
Chain of SUMO E1/E2 (Q9UBT2 whole entry): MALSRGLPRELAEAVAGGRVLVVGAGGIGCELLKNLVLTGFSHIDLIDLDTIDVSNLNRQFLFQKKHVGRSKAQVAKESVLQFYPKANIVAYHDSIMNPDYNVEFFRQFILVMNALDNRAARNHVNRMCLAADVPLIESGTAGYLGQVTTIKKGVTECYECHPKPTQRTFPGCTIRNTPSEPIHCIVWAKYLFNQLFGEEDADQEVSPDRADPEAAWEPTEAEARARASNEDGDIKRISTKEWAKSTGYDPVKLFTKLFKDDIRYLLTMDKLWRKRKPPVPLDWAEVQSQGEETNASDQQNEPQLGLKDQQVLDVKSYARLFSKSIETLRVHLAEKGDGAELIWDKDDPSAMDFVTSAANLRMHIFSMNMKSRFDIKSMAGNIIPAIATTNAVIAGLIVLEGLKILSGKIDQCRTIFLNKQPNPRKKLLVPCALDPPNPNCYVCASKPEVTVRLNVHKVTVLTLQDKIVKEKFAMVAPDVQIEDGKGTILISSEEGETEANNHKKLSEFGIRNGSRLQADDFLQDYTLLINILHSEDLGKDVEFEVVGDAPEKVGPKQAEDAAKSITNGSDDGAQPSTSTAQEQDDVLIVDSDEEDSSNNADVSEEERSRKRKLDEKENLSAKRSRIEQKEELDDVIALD
Chain of SUMO E1/E2 (P63279 whole entry): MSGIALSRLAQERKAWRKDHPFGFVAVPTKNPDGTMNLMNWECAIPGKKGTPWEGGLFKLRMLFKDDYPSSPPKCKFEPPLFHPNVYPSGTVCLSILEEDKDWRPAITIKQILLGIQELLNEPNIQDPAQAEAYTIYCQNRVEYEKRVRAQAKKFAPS

[3] = biological target: Dual specificity protein kinase CLK1 (Homo sapiens, UniProt P49759); test: inhibition of human CLK1 activity – biochemical, cherry-picked samples, selectivity assay for Dyrk1A inhibitor project, dose response (AID 588811)
Chain of Dual specificity protein kinase CLK1 (P49759 whole entry): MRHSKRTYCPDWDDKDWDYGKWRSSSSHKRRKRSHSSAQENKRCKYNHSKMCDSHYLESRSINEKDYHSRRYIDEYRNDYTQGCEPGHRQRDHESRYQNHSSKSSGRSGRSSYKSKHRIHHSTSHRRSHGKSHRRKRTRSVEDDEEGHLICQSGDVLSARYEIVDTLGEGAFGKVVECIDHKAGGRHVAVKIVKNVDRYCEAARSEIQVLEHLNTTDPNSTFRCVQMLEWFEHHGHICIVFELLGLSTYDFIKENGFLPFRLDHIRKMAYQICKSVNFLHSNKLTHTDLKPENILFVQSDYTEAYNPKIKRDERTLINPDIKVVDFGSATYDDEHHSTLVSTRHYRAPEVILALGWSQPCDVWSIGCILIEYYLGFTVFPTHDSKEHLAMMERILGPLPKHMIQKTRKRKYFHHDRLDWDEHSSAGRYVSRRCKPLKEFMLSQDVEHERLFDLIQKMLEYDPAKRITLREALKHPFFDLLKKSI

HEK293 [4] = test: cells; type: functional, cell-based; conditions: Homo sapiens
HEK293 [5] = test: inhibition of NOD1-driven NF-kB reporter – cell-based, luminescence, uHTS, primary screen (AID 1578); type: functional; conditions: Homo sapiens
SUMO-activating enzyme [6] = biological target: T1, SUMO-activating enzyme (Homo sapiens, UniProt Q9UBT2); test: blockers of UBC9-mediated SUMO conjugation – biochemical, AlphaScreen, SUMOylation inhibitor project, confirmation (AID 2018); type: functional
T1 sequence (Q9UBE0 whole entry): as the sequence (Q9UBE0 whole entry) above
T1 sequence (Q9UBT2 whole entry): as the sequence (Q9UBT2 whole entry) above

HEK293 [7] = test: cells; type: functional, cell-based; conditions: Homo sapiens; remark: listed apart in the source
SUMO-activating enzyme [8] = biological target: T1, SUMO-activating enzyme; test: blockers of SAE1/SAE2–UBC9 SUMO transfer – biochemical, HTRF, uHTS, primary screen (AID 2006); type: protein-complex assay
HEK293 [9] = test: NOD2 signaling inhibitors in MDP-stimulated cells, cell-based, uHTS, luminescence (AID 2001); type: functional; conditions: Homo sapiens
[10] = biological target: Intestinal-type alkaline phosphatase (Homo sapiens, UniProt P09923); test: inhibition of human intestinal alkaline phosphatase – biochemical, dose response (AID 488876); type: functional
[11] = biological target: Intestinal-type alkaline phosphatase (Mus musculus, UniProt P24822); test: PubChem AID 488785; type: functional
Chain of Intestinal-type alkaline phosphatase (Mus musculus, UniProt P24822) (P24822 whole entry): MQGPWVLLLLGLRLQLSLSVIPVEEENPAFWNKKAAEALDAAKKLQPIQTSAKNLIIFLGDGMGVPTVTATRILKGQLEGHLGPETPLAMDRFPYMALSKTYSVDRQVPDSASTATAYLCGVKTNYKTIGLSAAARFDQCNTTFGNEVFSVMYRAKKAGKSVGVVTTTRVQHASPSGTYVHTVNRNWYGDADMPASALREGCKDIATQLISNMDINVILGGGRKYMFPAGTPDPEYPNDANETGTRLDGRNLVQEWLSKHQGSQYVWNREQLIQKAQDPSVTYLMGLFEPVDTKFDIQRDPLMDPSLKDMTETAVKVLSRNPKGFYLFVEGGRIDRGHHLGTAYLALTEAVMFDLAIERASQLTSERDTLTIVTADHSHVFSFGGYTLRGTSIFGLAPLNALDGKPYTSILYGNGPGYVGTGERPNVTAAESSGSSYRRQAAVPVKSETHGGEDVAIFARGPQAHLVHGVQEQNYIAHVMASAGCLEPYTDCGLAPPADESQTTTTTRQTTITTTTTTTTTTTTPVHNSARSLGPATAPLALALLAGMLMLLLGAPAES

Caspase-6 = biological target: T2, Caspase-6 (Homo sapiens, UniProt P55212); test: inhibition of CASP6 peptide cleavage – biochemical, VEID-R110 fluorescence, cherry-pick, dose response (AID 720632)
T2 sequence (P55212 whole entry): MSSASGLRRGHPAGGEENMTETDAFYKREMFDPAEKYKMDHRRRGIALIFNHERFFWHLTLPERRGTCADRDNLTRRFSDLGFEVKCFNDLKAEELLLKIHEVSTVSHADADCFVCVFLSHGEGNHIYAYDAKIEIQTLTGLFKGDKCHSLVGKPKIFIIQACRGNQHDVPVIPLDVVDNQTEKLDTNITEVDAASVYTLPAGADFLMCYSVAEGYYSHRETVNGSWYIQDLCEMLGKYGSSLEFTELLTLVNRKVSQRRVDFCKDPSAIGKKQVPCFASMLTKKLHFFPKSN

[12] = biological target: T3, Alkaline phosphatase, tissue-nonspecific isozyme (Homo sapiens, UniProt P05186); test: TNAP enzyme inhibition by screening hits, dose response, selectivity assay for mouse IAP inhibitor project, biochemical, human TNAP, uHTS hits (AID 488906); type: functional
T3 sequence (P05186 whole entry): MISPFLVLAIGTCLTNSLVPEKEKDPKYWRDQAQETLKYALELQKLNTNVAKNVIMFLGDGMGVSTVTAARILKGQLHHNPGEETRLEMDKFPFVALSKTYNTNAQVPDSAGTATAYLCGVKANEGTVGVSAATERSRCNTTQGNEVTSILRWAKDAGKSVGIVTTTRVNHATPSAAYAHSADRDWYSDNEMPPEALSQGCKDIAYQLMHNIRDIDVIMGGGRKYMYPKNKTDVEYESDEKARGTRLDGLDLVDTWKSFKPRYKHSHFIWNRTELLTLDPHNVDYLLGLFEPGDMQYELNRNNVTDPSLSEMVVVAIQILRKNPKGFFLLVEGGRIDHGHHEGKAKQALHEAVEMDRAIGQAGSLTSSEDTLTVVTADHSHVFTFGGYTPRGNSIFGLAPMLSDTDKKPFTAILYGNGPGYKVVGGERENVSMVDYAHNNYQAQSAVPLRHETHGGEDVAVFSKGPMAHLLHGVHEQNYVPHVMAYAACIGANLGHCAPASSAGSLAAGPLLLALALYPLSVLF

[13] = biological target: Eukaryotic translation initiation factor 4E (Mus musculus, UniProt P63073); test: blockers of eIF4G binding by eIF4E – biochemical, TR-FRET, dose response (AID 855); type: functional;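 note: potency for disrupting eIF4E binding to eIF4GI seen as loss of FRET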
Chain of Eukaryotic translation initiation factor 4E (P63073 whole entry): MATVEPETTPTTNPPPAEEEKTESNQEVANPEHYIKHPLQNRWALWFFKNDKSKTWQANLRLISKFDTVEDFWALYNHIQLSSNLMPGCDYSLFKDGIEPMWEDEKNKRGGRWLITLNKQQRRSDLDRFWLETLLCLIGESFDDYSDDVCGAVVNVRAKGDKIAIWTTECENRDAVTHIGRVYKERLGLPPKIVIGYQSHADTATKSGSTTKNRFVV

Cytochrome P450 2D6 = Cytochrome P450 2D6 (Homo sapiens, UniProt P10635);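 note: CYP2D6 member of a cytochrome P450 panel assay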
Chain of Cytochrome P450 2D6 (P10635 whole entry): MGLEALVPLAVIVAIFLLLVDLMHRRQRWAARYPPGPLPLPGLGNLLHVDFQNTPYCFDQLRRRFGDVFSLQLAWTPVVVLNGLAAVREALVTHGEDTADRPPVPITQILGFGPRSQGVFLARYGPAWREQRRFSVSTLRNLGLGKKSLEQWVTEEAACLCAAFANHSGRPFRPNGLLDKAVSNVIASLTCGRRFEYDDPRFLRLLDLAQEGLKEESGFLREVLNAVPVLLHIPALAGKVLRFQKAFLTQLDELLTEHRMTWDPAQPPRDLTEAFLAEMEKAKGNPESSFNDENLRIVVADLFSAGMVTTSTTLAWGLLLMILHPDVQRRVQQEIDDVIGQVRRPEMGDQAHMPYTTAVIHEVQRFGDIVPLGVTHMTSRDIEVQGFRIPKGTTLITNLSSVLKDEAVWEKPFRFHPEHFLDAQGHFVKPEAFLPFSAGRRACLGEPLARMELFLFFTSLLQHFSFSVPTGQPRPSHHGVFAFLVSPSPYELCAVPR

Cytochrome P450 2C19 = Cytochrome P450 2C19 (Homo sapiens, UniProt P33261); test: Cytochrome panel assay with activity outcomes. Panel member name: p450-cyp2c19 Compounds with AC50 equal or less than 10 uM are considered active; type: functional; conditions: read-out: AC50
[14] = biological target: Dual specificity tyrosine-phosphorylation-regulated kinase 1A (Rattus norvegicus, UniProt Q63470); type: biochemical, Homo sapiens
Mu-type opioid receptor [15] = biological target: T4, Mu-type opioid receptor (Homo sapiens, UniProt P35372); test: mu opioid receptor blockers – image-based, SAR follow-up (AID 2420); type: functional;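 note: compounds added before stimulation of receptor with agonist DAMGO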
T4 sequence (P35372 whole entry): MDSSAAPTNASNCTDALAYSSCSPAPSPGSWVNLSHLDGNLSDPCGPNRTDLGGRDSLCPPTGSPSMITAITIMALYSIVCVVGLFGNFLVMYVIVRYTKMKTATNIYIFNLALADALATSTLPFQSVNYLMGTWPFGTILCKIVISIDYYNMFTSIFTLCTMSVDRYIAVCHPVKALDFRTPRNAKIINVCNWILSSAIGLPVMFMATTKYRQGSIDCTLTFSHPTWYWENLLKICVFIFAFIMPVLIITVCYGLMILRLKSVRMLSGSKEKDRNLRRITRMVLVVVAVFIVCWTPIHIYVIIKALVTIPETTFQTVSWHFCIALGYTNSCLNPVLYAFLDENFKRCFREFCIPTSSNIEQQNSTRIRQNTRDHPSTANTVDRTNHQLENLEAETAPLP

Mu-type opioid receptor [16] = biological target: T4, Mu-type opioid receptor; test: mu opioid receptor activators, image-based, SAR follow-up (AID 2352); type: functional
[17] = biological target: T5, Delta-type opioid receptor (Homo sapiens, UniProt P41143); test: DOR agonists, SAR follow-up, image-based (AID 2370); type: functional
T5 sequence (P41143 whole entry): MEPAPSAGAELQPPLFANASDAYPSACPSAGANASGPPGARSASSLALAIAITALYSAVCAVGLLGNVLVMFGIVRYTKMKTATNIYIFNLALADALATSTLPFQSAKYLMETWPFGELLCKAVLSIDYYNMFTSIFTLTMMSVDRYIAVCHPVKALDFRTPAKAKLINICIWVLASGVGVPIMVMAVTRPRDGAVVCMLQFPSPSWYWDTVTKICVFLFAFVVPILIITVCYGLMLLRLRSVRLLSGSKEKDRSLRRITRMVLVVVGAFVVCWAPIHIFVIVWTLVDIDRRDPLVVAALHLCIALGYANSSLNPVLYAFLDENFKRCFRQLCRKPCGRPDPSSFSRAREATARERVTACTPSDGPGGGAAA

[18] = biological target: T6, Kappa-type opioid receptor (Homo sapiens, UniProt P41145); test: kappa opioid receptor blockers, image-based, SAR follow-up (AID 2348); type: functional
T6 sequence (P41145 whole entry): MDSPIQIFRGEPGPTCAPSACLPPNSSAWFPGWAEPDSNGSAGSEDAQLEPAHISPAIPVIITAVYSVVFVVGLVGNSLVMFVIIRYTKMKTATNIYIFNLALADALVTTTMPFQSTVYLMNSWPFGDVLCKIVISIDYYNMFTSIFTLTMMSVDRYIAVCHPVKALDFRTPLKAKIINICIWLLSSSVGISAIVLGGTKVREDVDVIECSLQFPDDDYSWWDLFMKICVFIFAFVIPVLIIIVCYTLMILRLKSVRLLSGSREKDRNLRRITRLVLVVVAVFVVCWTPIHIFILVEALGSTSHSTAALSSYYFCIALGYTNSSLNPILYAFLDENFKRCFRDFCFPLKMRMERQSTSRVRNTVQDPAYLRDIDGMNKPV

[19] = biological target: T6, Kappa-type opioid receptor; test: kappa opioid receptor activation potency – imaging, image-based, SAR follow-up (AID 2359); type: functional
[20] = biological target: T6, Kappa-type opioid receptor; test: kappa opioid receptor blockers, cell-based, luminescence, beta-arrestin, SAR follow-up (AID 2285); type: functional
[21] = biological target: T5, Delta-type opioid receptor; test: delta opioid receptor blockers – image-based, SAR follow-up (AID 2357); type: functional
[22] = decrease of insulin promoter-GFP reporter – imaging, high-content screening, mouse beta cells (AID 1628); type: functional; conditions: MIN6
[23] = MIN6 cell viability loss – mouse insulinoma, cytotoxicity control, dose response (AID 2122); type: functional;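 note: confirmatory high-throughput counterscreen run to flag cytotoxic compounds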

Chain of Beta-lactamase (Salmonella choleraesuis (strain SC-B67), UniProt Q5J463) (Q5J463 whole entry): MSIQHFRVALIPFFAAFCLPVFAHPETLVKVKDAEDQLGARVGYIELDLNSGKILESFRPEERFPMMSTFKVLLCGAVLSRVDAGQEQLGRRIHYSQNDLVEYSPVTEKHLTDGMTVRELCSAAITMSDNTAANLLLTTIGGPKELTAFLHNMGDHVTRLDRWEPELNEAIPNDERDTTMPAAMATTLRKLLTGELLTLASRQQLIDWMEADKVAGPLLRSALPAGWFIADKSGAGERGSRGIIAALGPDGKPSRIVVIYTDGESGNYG

SMILES: CN(/N=C/c1ccc(-c2ccc([N+](=O)[O-])cc2)o1)c1ccccc1
- IC50 (Beta-lactamase [1]): > 59.6 µM (inactive)
- EC50 (Troponin, cardiac muscle): 1.44 µM (active)
- IC50 (Beta-lactamase [2]): > 59.6 µM (inactive)

SMILES: Cc1ccsc1C=Nc1ccccc1O
- IC50 (SUMO E1/E2): > 100 µM (inactive)

SMILES: O=[N+]([O-])c1cc(Nc2nccc(-c3ccc4c(c3)OCO4)n2)cc(C(F)(F)F)c1
- AC50 [3]: 5.45 µM (active)

SMILES: Cc1ccc(/C=C2/SC(=S)N(c3ccc(S(=O)(=O)Nc4nccs4)cc3)C2=O)cc1
- IC50 (HEK293 [4]): 17.8 µM (active)
- EC50 (HEK293 [5]): > 20 µM (inactive)
- IC50 (SUMO-activating enzyme [6]): 1.58 µM (active)
- IC50 (HEK293 [7]): > 20 µM (inactive)
- IC50 (SUMO-activating enzyme [8]): 38.6 µM (active)
- IC50 (HEK293 [9]): 14.2 µM (inactive)

SMILES: CCOc1ccc(S(=O)(=O)Nc2ccc(O)c(Sc3nnc[nH]3)c2)cc1
- IC50 [10]: 5.04 µM (active)
- IC50 [11]: 1.17 µM (active)
- AC50 (Caspase-6): 51.3 µM (active)
- IC50 [12]: 32.4 µM (active)

SMILES: COC(=O)C1=C(C)NC(=O)C1(Nc1ccc(Cl)cn1)C(F)(F)F (centres undefined)
- IC50 [13]: > 64 µM (inactive)

SMILES: CCSc1nnc(NC(=O)Cc2ccccc2OC)s1
- AC50 (Cytochrome P450 2D6): inconclusive
- AC50 (Cytochrome P450 2C19): 1.41 µM (inconclusive)

SMILES: Cc1nc(NC(=O)c2ccccc2)sc1-c1csc(NCc2ccco2)n1
- AC50 [14]: 7.53 µM (active)
- AC50 [3]: 0.579 µM (active)

SMILES: Cc1ccc(NC(=S)NC(NC(=O)OCc2ccccc2)C(Cl)(Cl)Cl)c(C)c1 (centres undefined)
- IC50 (Mu-type opioid receptor [15]): > 32 µM (inactive)
- EC50 (Mu-type opioid receptor [16]): > 32 µM (inactive)
- EC50 [17]: > 32 µM (inactive)
- IC50 [18]: 1.98 µM (active)
- EC50 [19]: > 32 µM (inactive)
- IC50 [20]: 8.74 µM (active)
- IC50 [21]: > 32 µM (inactive)

SMILES: CCCn1c(-c2ccc(OC)cc2)nc2ccccc21
- IC50 [22]: 3.16 µM (active)
- IC50 [23]: 1.42 µM (active)
